ChEMBL document CHEMBL3046234, “Synthesis and pharmacological evaluation of some new naphthol derived aryloxy derivatives as cognition enhancers” (2012)

What was measured:
Mus musculus [1] = experiment: Antiamnesic activity in Mus musculus (mouse) assessed as retention of memory at 1 mg/kg, ip measured after 24 hr by elevated plus maze test; assay type: functional; conditions: route intraperitoneal
Mus musculus [2] = experiment: Antiamnesic activity in Mus musculus (mouse) assessed as retention of memory at 3 mg/kg, ip measured after 24 hr by elevated plus maze test; assay type: functional; conditions: route intraperitoneal
[3] = target: T1, Acetylcholinesterase (Mus musculus) (UniProt P21836); experiment: Inhibition of AChE in Mus musculus (mouse) brain homogenate assessed as residual activity measuring acetylthiocholine iodide hydrolysis per mg protein at 10 uM after 5 min by Ellman method; assay type: tissue-based
T1 sequence (whole entry): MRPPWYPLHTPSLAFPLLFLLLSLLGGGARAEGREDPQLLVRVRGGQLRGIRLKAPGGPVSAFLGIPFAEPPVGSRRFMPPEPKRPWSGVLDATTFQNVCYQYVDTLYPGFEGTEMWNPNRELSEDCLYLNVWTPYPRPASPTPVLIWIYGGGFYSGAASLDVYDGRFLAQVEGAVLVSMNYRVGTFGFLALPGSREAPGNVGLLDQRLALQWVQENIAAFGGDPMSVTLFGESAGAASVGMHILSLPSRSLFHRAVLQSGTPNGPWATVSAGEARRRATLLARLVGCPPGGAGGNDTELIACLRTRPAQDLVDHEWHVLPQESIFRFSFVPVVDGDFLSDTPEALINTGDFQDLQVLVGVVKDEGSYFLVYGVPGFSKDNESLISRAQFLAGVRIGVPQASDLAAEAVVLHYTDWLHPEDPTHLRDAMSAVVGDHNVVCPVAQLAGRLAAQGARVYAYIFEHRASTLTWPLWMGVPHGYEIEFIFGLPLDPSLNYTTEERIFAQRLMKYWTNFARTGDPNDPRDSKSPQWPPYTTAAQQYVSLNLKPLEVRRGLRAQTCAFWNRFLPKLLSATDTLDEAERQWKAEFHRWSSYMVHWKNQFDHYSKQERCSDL

[4] = target: T1, Acetylcholinesterase (Mus musculus); experiment: Inhibition of AChE in Mus musculus (mouse) brain homogenate at 10 uM after 5 min by Ellman method relative to control; assay type: tissue-based

Structure (SMILES) | Activity (Mus musculus [1]) | Activity (Mus musculus [2]) | Activity [3] | Imax [4]
NC(=O)CN1CCCC1=O [PIRACETAM] | 32.47% | 46.88% | – | –
Nc1cccc2c(OCC(=O)N3CCCC3)cccc12 | 69.11% | 74.47% | 78.5 nmol/min | 31.1%
O=C(COc1cccc2ccccc12)N1CCCC1 | 51.59% | 68.44% | 29.7 nmol/min | 73.9%
O=C(COc1cccc2ccccc12)N1CCOCC1 | 62.69% | 81.65% | 25.8 nmol/min | 77.4%
Nc1cccc2c(OCC(=O)N3CCOCC3)cccc12 | 43.26% | 75.35% | 55.9 nmol/min | 51%
O=C(COc1cccc2ccccc12)N1CCCCC1 | 63% | 72.94% | 83.5 nmol/min | 26.8%
CCN(CC)CCOc1cccc2c(NC(=O)C(C)C)cccc12 | 19.28% | 28.1% | 56 nmol/min | 26.3%
CN(C)C(=O)COc1cccc2ccccc12 | 52.92% | 77.78% | 76.2 nmol/min | 33.1%
CN1CCN(C(=O)COc2cccc3ccccc23)CC1 | 73.76% | 86.18% | 15.4 nmol/min | 86.5%
CC(C)C(=O)Nc1cccc2c(OCCN3CCOCC3)cccc12 | 22.23% | 25.43% | 59 nmol/min | 22.3%
